For 14 molecules, IC50 results are on record in patent publication US7179831B2, “5-[3-(4-benzyloxyphenylthio)-fur-2-yl]-imidazolidin-2, 4-dione and analogues as inhibitors of macrophage elastase” (Quest Pharmaceutical Services, priority 2004, dated 2007).

Where only a bound is given, the exact number is not on record here.

Holding throughout (format): biochemical
Common to all, as to conditions: recombinant human active domain, substrate 4 uM, room temperature

For one test, the target named is T1, MMP-13 (Homo sapiens, UniProt P45452).
T1 construct: All the enzymes are recombinant human active domains from E. coli (Biomol); purchased Biomol; host or cells: E. coli
Description: MMP inhibitory assay, fluorescent substrate, MMP-13. The protocol: (§1) The enzymatic activities of MMPs were assayed according to manufacture protocols (Biomol Reseaerch Laboratory, Inc. E-mail: info@biomol.com). All the enzymes are recombinant human active domains from E. coli (Biomol). The fluorescent substrate has the sequence of (7-methoxycoumarin-4-yl) acetyl-Pro-Leu-Gly-Leu-N-3-(2,4-dinitrophenyl)-L-α,β-diaminopropionyl-Ala-Arg-NH2.AcOH. All the assays were conducted at room temperature with 96 well flat bottom black plate (Nalge Nunc International, Catalog number, 465200). Briefly, certain amount of enzyme in 89 ul of assay buffer (50 mM Hepes, 10 mM CaCl2, 0.05% Brij 35, pH 7.5) was incubated with (7 concentration per set) or without inhibitor (in 1 ul of DMSO, or 1 ul DMSO only) for 20 min. Then the enzymatic reaction was initiated by the addition of the substrate (40 uM in 10 ul of assay buffer and the final concentration of the substrate is 4 uM). The activity was determined by measuring the fluorescence at Ex/Em=328 nm/393 nm and it was linear within 2 hrs. The fluorescence was read at 0 and 20 or 40 min. The reading at 0 time would be considered as the background and subtracted from the final reading. The IC50 was obtained by plotting the fluorescences versus the concentrations of the inhibitors of each assay with Prism software. […] Mechanism studies reveal that the inhibitors are competitive. For competitive inhibitor: Ki=IC50/(1+[S]/Km)

Another test has as its target T2, MMP-1 (Homo sapiens, UniProt P03956).
T2 construct: All the enzymes are recombinant human active domains from E. coli (Biomol); purchased Biomol; host or cells: E. coli
T2 sequence (P03956 100-269 limits assumed): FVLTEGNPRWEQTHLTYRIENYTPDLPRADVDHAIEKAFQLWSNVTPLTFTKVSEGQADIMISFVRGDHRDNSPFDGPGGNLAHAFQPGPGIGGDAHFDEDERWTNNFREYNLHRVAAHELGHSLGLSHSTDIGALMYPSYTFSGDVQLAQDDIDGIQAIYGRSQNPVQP
Description: MMP inhibitory assay, fluorescent substrate, MMP-1. The protocol: as §1

Another test deals with T3, MMP-3 (Homo sapiens, UniProt P08254).
T3 construct: All the enzymes are recombinant human active domains from E. coli (Biomol); purchased Biomol; host or cells: E. coli
Description: MMP inhibitory assay, fluorescent substrate, MMP-3. The protocol:
as §1

For a further test, the target named is T4, MMP-7 (Homo sapiens, UniProt P09237).
T4 construct: All the enzymes are recombinant human active domains from E. coli (Biomol); purchased Biomol; host or cells: E. coli
T4 sequence (P09237 95-267): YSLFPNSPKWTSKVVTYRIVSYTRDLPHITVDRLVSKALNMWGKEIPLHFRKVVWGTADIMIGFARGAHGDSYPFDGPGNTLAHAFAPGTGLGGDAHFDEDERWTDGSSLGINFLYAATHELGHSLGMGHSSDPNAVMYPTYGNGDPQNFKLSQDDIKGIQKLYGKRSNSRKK
Description: MMP inhibitory assay, fluorescent substrate, MMP-7. Here is the method: as §1

The next test deals with T5, MMP-12 (Homo sapiens, UniProt P39900).
T5 construct: All the enzymes are recombinant human active domains from E. coli (Biomol); purchased Biomol; host or cells: E. coli
Description: MMP inhibitory assay, fluorescent substrate, MMP-12. The protocol: as §1
In the assay conditions, [S](4 uM) is smaller than Km (20 uM for MMP-12). So Ki equal to IC50/1.2, which is little smaller than IC50, or roughly equal to IC50.

A further test addresses T6, MMP-2 (Homo sapiens, UniProt P08253).
T6 construct: All the enzymes are recombinant human active domains from E. coli (Biomol); purchased Biomol; host or cells: E. coli
Description: MMP inhibitory assay, fluorescent substrate, MMP-2. Here is the method:
as §1

For a further test, the target named is T7, MMP-9 (Homo sapiens, UniProt P14780).
T7 construct: All the enzymes are recombinant human active domains from E. coli (Biomol); purchased Biomol; host or cells: E. coli
Description: MMP inhibitory assay, fluorescent substrate, MMP-9. The protocol:
as §1

T7 sequence (P14780 107-444 limits assumed): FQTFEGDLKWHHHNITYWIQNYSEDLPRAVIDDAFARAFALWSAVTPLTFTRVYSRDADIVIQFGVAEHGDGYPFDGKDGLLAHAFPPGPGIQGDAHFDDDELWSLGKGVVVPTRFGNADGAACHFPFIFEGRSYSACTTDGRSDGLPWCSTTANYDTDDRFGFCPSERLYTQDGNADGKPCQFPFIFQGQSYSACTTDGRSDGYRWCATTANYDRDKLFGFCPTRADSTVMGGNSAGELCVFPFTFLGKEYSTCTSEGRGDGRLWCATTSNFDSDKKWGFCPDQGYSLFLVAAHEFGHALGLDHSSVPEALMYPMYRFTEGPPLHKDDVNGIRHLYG
T6 sequence (P08253 110-446 limits assumed): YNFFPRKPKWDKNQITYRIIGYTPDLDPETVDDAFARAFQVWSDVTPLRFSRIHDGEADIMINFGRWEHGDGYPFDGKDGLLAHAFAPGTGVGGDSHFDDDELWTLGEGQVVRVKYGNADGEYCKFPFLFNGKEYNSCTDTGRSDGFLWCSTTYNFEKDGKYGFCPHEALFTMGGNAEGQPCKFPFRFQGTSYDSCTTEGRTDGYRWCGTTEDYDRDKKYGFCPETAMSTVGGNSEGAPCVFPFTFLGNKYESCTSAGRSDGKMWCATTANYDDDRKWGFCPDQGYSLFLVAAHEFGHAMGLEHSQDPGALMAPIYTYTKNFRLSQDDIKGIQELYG
T3 sequence (P08254 100-272 limits assumed): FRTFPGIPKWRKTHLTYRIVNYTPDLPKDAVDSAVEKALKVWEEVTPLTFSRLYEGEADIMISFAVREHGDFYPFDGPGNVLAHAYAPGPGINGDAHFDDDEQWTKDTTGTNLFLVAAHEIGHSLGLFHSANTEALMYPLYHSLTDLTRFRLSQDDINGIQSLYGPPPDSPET
T5 sequence (P39900 106-263 limits assumed): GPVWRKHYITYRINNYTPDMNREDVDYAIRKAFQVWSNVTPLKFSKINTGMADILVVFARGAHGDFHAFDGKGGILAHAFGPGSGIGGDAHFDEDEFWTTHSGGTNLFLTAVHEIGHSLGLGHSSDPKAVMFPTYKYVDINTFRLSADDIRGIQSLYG

Regarding `O=C1NC(=O)C(c2occc2Sc2ccc(OCc3cccc(Cl)c3)cc2)N1` (stereo not drawn) [IVi, 5-{3-[4-(3-Chlorobenzyloxy)phenylthio]fur-2-yl}imidazolidine-2,4-dione], the IC50 on MMP-13 is 0.773 µM; at MMP-1, above 40 µM; at MMP-3 it was 0.298 µM; on MMP-7, 676 µM; on MMP-12, 0.022 µM; at MMP-2, 1.02 µM. For the same molecule, at MMP-9, the IC50 is 1.44 µM.

In the case of `Cc1cccc(COc2ccc(Sc3ccoc3C3NC(=O)NC3=O)cc2)c1` (stereo not drawn) [IVo, 5-{3-[4-(3-Methyl-benzyloxy)phenylthio]fur-2-yl}imidazolidine-2,4-dione], the IC50 is 1.95 µM at MMP-13; above 40 µM at MMP-1; 1.35 µM on MMP-3; 46.7 µM on MMP-7; 0.011 µM at MMP-12; 1.11 µM on MMP-2. Also, the IC50 on MMP-9 was determined as 2.95 µM.

On to `COc1ccccc1COc1ccc(Sc2ccoc2C2NC(=O)NC2=O)cc1` (stereo not drawn) [IVf, 5-{3-[4-(2-Methoxybenzyloxy)phenylthio]fur-2-yl}imidazolidine-2,4-dione], for which the IC50 on MMP-13 is 11.6 µM; at MMP-1 it was above 40 µM; at MMP-12, 0.202 µM; on MMP-2 it was 233 µM; on MMP-9 it was 30.4 µM.

As for `O=C1NC(=O)C(c2occc2Sc2ccc(OCc3cccc(C(F)(F)F)c3)cc2)N1` (stereo not drawn) [IVq, 5-{3-[4-(3-Trifluoromethyl-benzyloxy)phenylthio]fur-2yl}imidazolidine-2,4-dione], the IC50 at MMP-13 was 2.06 µM; at MMP-1, above 40 µM; on MMP-3 it was 3.31 µM; on MMP-12 it was 0.034 µM; on MMP-2 it was 2.13 µM; at MMP-9, 2.88 µM.

`O=C1NC(=O)C(c2occc2Sc2ccc(OCc3ccccc3)cc2)N1` (stereo not drawn) [IVa, 5-[3-(4-Benzoxyphenylthio)fur-2-yl]imidazoline-2,4-dione]: the IC50 at MMP-13 was 1.07 µM; on MMP-1, above 40 µM; at MMP-3, 2.1 µM; at MMP-7 it was 63.7 µM; at MMP-12, 0.013 µM; on MMP-2, 0.447 µM. The IC50 on MMP-9 was 0.727 µM.

Take `O=C1NC(=O)C(c2occc2Sc2ccc(OCc3ccc(Cl)cc3)cc2)N1` (stereo not drawn) [IVh, 5-{3-[4-(4-Chlorobenzyloxy)phenylthio]fur-2-yl}imidazolidine-2,4-dione]: the IC50 at MMP-13 is 0.329 µM; at MMP-1, above 40 µM; at MMP-3 it was 0.157 µM; on MMP-7, 7.45 µM; at MMP-12, 0.007 µM; at MMP-2, 0.235 µM. Besides, the IC50 on MMP-9 worked out at 0.255 µM.

On to `Cc1ccccc1COc1ccc(Sc2ccoc2C2NC(=O)NC2=O)cc1` (stereo not drawn) [IVp, 5-{3-[4-(2-Methyl-benzyloxy)phenylthio]fur-2-yl}imidazolidine-2,4-dione], for which the IC50 was 4.26 µM on MMP-13; above 40 µM at MMP-1; 4.04 µM at MMP-3; 0.042 µM at MMP-12; 7.03 µM on MMP-2; 2.08 µM at MMP-9.

Take `Cc1ccc(COc2ccc(Sc3ccoc3C3NC(=O)NC3=O)cc2)cc1` (stereo not drawn) [IVk, 5-{3-[4-(4-Methylbenzyloxy)phenylthio]fur-2-yl}imidazolidine-2,4-dione]: the IC50 at MMP-13 was 0.643 µM; at MMP-1, above 40 µM; on MMP-3 it was 0.586 µM; at MMP-7 it was 30.9 µM; on MMP-12, 0.015 µM; at MMP-2 it was 0.612 µM. The IC50 at MMP-9 came to 0.472 µM.

Take `O=C1NC(=O)C(c2occc2Sc2ccc(OCc3ccc(OCc4ccccc4)cc3)cc2)N1` (stereo not drawn) [IVb, 5-{3-[4-(4-Benzyloxybenzyloxy)phenylthio]fur-2-yl}imidazolidine-2,4-dione]: the IC50 was 0.335 µM at MMP-13; above 40 µM at MMP-1; 0.383 µM at MMP-3; 1.88 µM at MMP-7; 0.084 µM on MMP-12; 1.18 µM on MMP-2. For the same molecule, the IC50 on MMP-9 was determined as 4.47 µM.

With `COc1cc(COc2ccc(Sc3ccoc3C3NC(=O)NC3=O)cc2)cc(OC)c1` (stereo not drawn) [IVg, 5-{3-[4-(3,5-dimethoxybenzoxy)phenylthio]fur-2yl}imidazoline-2,4-dione], the IC50 on MMP-13 was 16.8 µM; at MMP-1 it was above 40 µM; on MMP-3, 7.95 µM; at MMP-12, 0.264 µM; on MMP-9 it was 35.8 µM.

`COc1cccc(COc2ccc(Sc3ccoc3C3NC(=O)NC3=O)cc2)c1` (stereo not drawn) [IVe, 5-{3-[4-(3-Methoxybenzyloxy)phenylthio]fur-2-yl}imidazolidine-2,4-dione]: the IC50 at MMP-13 is 2.44 µM; at MMP-1, above 40 µM; at MMP-3 it was 3.62 µM; at MMP-7, 27.4 µM; on MMP-12, 0.019 µM; at MMP-2, 2.01 µM. Also, the IC50 at MMP-9 worked out at 3.76 µM.

On to `O=C1NC(=O)C(c2occc2Sc2ccc(OCc3ccc(-c4ccccc4)cc3)cc2)N1` (stereo not drawn) [IVc, 5-{3-[4-(4-biphenylmethoxy)phenylthio]fur-2-yl}imidazoline-2,4-dione], for which the IC50 was 0.707 µM at MMP-13; above 40 µM on MMP-1; 35.9 µM at MMP-3; 1.04 µM on MMP-7; 0.131 µM on MMP-12; 1.74 µM on MMP-2.

As to `COc1ccc(COc2ccc(Sc3ccoc3C3NC(=O)NC3=O)cc2)cc1` (stereo not drawn) [IVd, 5-{3-[4-(4-Methoxybenzyloxy)phenylthio]fur-2-yl}imidazolidine-2,4-dione], the IC50 on MMP-13 is 0.26 µM; at MMP-1 it was above 40 µM; on MMP-3, 0.318 µM; on MMP-7 it was 7.6 µM; on MMP-12, 0.01 µM; on MMP-2 it was 0.422 µM. At MMP-9, the IC50 came to 0.74 µM.

As for `O=C1NC(=O)C(c2occc2Sc2ccc(OCc3ccccc3Cl)cc2)N1` (stereo not drawn) [IVj, 5-{3-[4-(2-Chlorobenzyloxy)phenylthio]fur-2-yl}imidazolidine-2,4-dione], the half-maximal inhibitory concentration (IC50) at MMP-13 is 2.41 µM; on MMP-1, above 40 µM; at MMP-3 it was 1.09 µM; on MMP-12 it was 0.057 µM; at MMP-2, 1.84 µM; at MMP-9, 1.13 µM.

As usually defined, the IC50 is the concentration at which inhibition is half-maximal.
